Structures are written as SMILES.

The target in one assay is T1, human NIS (hNIS) (Homo sapiens, UniProt Q92911).
T1 sequence (Q92911 1-643): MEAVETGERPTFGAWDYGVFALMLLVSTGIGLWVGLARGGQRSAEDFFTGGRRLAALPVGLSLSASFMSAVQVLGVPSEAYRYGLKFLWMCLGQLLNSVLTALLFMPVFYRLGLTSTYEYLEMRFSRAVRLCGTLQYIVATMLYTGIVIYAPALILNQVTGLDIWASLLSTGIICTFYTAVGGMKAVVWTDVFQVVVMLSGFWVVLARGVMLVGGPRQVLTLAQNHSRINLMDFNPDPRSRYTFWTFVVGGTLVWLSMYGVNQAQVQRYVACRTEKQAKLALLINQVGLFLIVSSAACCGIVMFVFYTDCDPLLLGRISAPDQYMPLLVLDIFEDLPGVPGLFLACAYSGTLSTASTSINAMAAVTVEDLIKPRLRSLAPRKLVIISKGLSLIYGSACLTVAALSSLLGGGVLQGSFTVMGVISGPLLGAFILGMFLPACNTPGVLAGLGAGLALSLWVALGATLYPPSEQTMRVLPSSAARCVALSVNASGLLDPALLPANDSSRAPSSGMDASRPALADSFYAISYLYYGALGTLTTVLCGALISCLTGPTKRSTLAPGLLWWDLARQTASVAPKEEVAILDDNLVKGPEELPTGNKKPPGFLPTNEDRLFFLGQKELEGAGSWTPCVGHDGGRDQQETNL
In words: inhibition of […]mTcO4 uptake in transduced HeLa cells. Format: cell-based.

The next assay has as its target T2, minke whale NIS (wNIS) (Balaenoptera acutorostrata, UniProt A0A384B8D1).
T2 sequence (A0A384B8D1 1-642): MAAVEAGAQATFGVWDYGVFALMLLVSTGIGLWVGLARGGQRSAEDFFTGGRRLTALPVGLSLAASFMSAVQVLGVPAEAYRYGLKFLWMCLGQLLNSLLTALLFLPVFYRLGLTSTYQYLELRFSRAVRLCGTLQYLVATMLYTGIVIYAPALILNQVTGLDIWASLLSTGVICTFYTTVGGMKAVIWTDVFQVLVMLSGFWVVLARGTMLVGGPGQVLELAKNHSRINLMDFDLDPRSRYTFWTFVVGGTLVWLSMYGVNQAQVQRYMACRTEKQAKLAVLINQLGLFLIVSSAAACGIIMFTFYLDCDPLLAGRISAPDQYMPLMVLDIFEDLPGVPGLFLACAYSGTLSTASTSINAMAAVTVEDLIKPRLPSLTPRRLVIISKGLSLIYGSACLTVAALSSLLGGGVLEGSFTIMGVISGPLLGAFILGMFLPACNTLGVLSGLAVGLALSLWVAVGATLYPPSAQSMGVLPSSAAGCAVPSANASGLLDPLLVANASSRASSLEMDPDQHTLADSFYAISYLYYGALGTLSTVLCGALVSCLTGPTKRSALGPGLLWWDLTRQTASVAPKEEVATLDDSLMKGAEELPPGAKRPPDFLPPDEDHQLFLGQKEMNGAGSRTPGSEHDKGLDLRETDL
Described as above. Type of assay: cell-based.

A word on the IC50: it is the midpoint of a concentration-inhibition curve. A higher IC50 goes with weaker potency in that assay. For `[O-][Cl+3]([O-])([O-])O` [perchlorate], the IC50 at human NIS (hNIS) came out at 195 nM; at minke whale NIS (wNIS), 2860 nM.

The values are drawn from PMC7791078 (Molecular Therapy, 2020).
